Article PMC10046377, “Inhibitors of the Oncogenic PA2G4-MYCN Protein-Protein Interface” (Cancers, 2023)

Columns and labels:
[1] = test system: WI-38 cells; experiment: Alamar Blue cell viability assay, WI-38 non-malignant myofibroblasts; format: cell-based; conditions: Homo sapiens, read-out: IC50 WI-36
Source text: (§1) The MYCN amplified neuroblastoma cell line SK-N-BE(2)-C was kindly provided by Professor June Biedler (Memorial Sloan Kettering Cancer Centre, New York, NY, USA), and Kelly was obtained from European Collection of Cell Cultures. The two normal lung fibroblast cell lines (MRC-5 and WI-38) were purchased from ATCC. SK-N-BE(2)-C shMYCN#2 doxycycline-inducible cell and Kelly shMYCN#2 doxycycline-inducible cell were custom-made by GenScript (Piscataway, NJ, USA). SK-N-BE(2)-C, SK-N-BE(2)-C shMYCN#2, and SHEP MYCN3 doxycycline-inducible cells were maintained in Dulbecco’s modified Eagle’s medium (DMEM) (Invitrogen, Life Technologies, Waltham, MA, USA) with 10% foetal calf serum (FCS). Kelly and Kelly shMYCN#2 doxycycline-inducible cell were cultured in Roswell Park Memorial Institute (RPMI) 1640 (Invitrogen, Life Technologies) with 10% FCS. MRC-5 and WI-38 were cultured in Alpha-MEM media (Invitrogen, Life Technologies) with 10% FCS. All cells were not cultured for more than 2 months. All used cell lines were authenticated by Cell Bank Australia (Westmead, NSW, Australia) as being free from mycoplasma, and cultured at 37 °C and 5% CO2 in a humidifier incubator.
(§2) Cell viability was determined by the Alamar Blue assay (75 mg resazurin, 12.5 mg methylene blue, 164.5 mg potassium hexacyanoferrate (III), 211 mg potassium hexacyanoferrate (II) trihydrate in 500 mL of phosphate buffered saline). After 6 h incubation with Alamar Blue, the change of fluorescence was measured by Victor 3 multilabel Plate Reader (Perkin Elmer Australia, Melburne, Australia) at an excitation wavelength of 560 nm and an emission wavelength of 590 nm.
(§3) We have shown that the PA2G4 protein increased the half-life of the oncoprotein MYCN through direct binding, and competitive chemical inhibition of this bond by WS6 reduced tumorigenicity both in vitro and in vivo [11]. […] Here, we explored the structure–activity relationship (SAR) of WS6 analogue compounds with the aim to increase efficacy and reduce toxicity. […] The in vitro cytotoxicity of these 14 compounds were measured by cell viability assays using Alamar Blue in MYCN amplified human neuroblastoma (SK-N-BE(2)-C and Kelly) cell lines compared to non-malignant (WI-38, MRC-5) myofibroblast cell lines (Figure 1B,C and Supplementary Figure S1A).

[2] = test system: MYCN; experiment: Western blot of MYCN protein level; format: cell-based, human; conditions: Kelly and SK-N-BE(2)-C cells; #5333/#5338: 48 h, 10–30 μM
Experimental: Protein was extracted from cell pellets using RIPA buffer (Sigma) with 10% protease inhibitor (Sigma, Sydney, Australia). Quantification of proteins was conducted using Pierce BCA protein assay kit (Thermo Scientific), according to manufacturer’s instructions. A total of 30–50 μg protein samples were loaded onto Criterion TGX 10% precast gel (Bio-Rad) or NuPAGE™ 4–12% Mini Protein Gel (Invitrogen, Life technologies) and transferred to a nitrocellulose membrane (Bio-Rad). The membrane was blocked in 5% skim milk in Tris-buffered saline with Tween-20 (20 mM Tris-HCl (pH 7.6), 137 mM NaCl, 0.1% Tween-20) for an hour before incubation at 4 °C overnight with the following primary antibodies: mouse anti-MYCN(1:2000, Santa-Cruz, Cat# sc-53993), rabbit anti-PA2G4 (1:2000, Atlas Antibodies, Cat# HPA016484), rabbit anti-PARP (1:1000, Cell Signalling Technologies, Danvers, MA, USA, Cat# 9542), rabbit anti-Caspase-3 (1:500, Cell Signalling Technologies, Cat# 9662), mouse anti-Bcl-2 (1:1000, Cell Signalling Technologies, Cat# 15071), rabbit anti-Bax (1:1000, Cell Signalling Technologies, Cat# 2772), mouse anti-Vinculin (1:2000, Sigma, Cat# V9131), mouse anti-GAPDH (1:2000, Santa-cruz, Cat# sc-365062), rabbit anti-β-actin (1:5000, Sigma, Cat# SAB2100037), rabbit anti-GATA2 (1:1000, Cell Signalling Technologies, Cat# 4595), mouse anti-Flag/DYKDDDDK tag (1:1000, Cell Signalling Technologies, Cat# 8146). Anti-mouse or anti-rabbit horseradish peroxidase secondary antibodies (1:5000, Life technologies, Cat# 31430, 31460) were added and incubated for 2 h at room temperature. Immunoblots were visualised by Clarity ECL reagent (Bio-Rad) and ChemiDoc MP Imaging System (Bio-Rad). Quantification of protein expression was measured by Image Lab software (Bio-Rad) and normalised to loading control.
Next, we examined whether #5333 and #5338 treatment for 48 h affected the levels of WS6 target proteins, PA2G4, and MYCN in neuroblastoma cells. […] Cell viability was measured following #5333 and #5338 treatments for 48–72 h. […] Cell viability was measured following #5333, #5338, or WS6 treatments for 72 h.

[3] = test system: neuroblastoma cells (Kelly, SK-N-BE(2)-C) compared to non-malignant myofibroblasts (WI-38, MRC-5); experiment: Therapeutic window, neuroblastoma cells versus non-malignant myofibroblasts; format: cell-based, human; conditions: non-malignant myofibroblast IC50 versus neuroblastoma cell IC50
Experimental: as §2, §3

[4] = test system: Kelly cells; experiment: Alamar Blue cell viability assay, Kelly; format: cell-based; conditions: Homo sapiens, MYCN amplified neuroblastoma cell line
Source text: as §1, §2, §3

[5] = test system: SK-N-BE(2)-C cells; experiment: Alamar Blue cell viability assay, SK-N-BE(2)-C; format: cell-based; conditions: Homo sapiens, MYCN amplified neuroblastoma cell line
Source text: as §1, §2, §3

[6] = test system: MRC-5 cells; experiment: Alamar Blue cell viability assay, MRC-5 non-malignant myofibroblasts; format: cell-based; conditions: Homo sapiens, MRC5
Source text: as §1, §2, §3

[7] = test system: neuroblastoma cells; experiment: Annexin V/7-AAD flow cytometry apoptosis assay; format: cell-based, human; conditions: 48 h treatment
Experimental: Neuroblastoma cell lines were seeded 24 h before treating with #5333 or #5338 for 48 h. The apoptotic and necrotic effects of the #5333 and #5338 treatment were determined by staining the cells with Annexin V PE/7-AAD using the Annexin V: PE Apoptosis Detection Kit (BD Biosciences, North Ryde, NSW, Australia), according to the manufacturer’s instruction. Stained cells were measured by flow cytometry using the BD LSRFortessa (BD Biosciences, NSW, Australia) and the data was analysed using the FlowJo software.
To determine if the drug effects led to apoptosis, we stained cells with annexin-V/7-AAD, a marker of early and late apoptotic events (Figure 2D). […] To confirm the apoptotic status of the cells, protein expression of key apoptotic markers PARP/Cleaved PARP, Caspase 3/Cleaved caspase 3, BCL2, and Bax was measured (Figure 2E).

[8] = test system: normal human myofibroblasts; experiment: Toxicity for normal human myofibroblasts relative to WS6; format: cell-based
Experimental: as §2, §3

Row | Structure (SMILES) | IC50 [1] [µM] | MYCN protein levels (Western blot) [2] | Therapeutic window (fold difference) [3] [fold] | IC50 [4] [µM] | IC50 [5] [µM] | IC50 [6] [µM] | apoptosis (annexin-V/7-AAD) [7] | fold lower toxicity for normal human myofibroblasts compared to WS6 [8] [fold]
1 | Cc1cccc(Oc2cc(N3CCC(C(=O)NCc4cccc(C(F)(F)F)c4)CC3)ncn2)c1C [#3567] | 80 | significantly reduced | 2.7 | 29 | 30 | 80 | – | –
2 | Cc1cccc(Oc2cc(N3CCC(C(=O)NCc4cccc(Br)c4)CC3)ncn2)c1C [#5333] | 100 | significantly reduced MYCN levels | 3.6 | 28.6 | 26.5 | 100 | caused similar levels of apoptosis | 70
3 | Cc1cccc(Oc2cc(N3CCC(C(=O)N[C@@H](C)CCc4ccccc4)CC3)ncn2)c1C [#5338] | 100 | significantly reduced MYCN levels | 3.8 | 30 | 23.3 | 100 | caused similar levels of apoptosis | 70
